Like-named read-outs stand apart in the source and are kept apart here.
Assays:
human liver hepatocytes = assay: Triphosphate levels in human hepatocytes after incubation with prodrug; conditions: incubation with 5 μM prodrug over 48 hours
Protocol: Fresh liver hepatocytes were received plated in a 12-well or 6-well format (Life Technologies, Catalogue #HMFN12 and #HMNF06). Upon receipt, shipping media was removed immediately and replaced with 1 mL or 2 mL pre-warmed culture medium (Supplemented modified Chee's Media; Xenotech LLC, Catalogue# K2300) for 12- and 6-well formats, respectively. Cells were acclimated overnight at 37° C. with 5% CO2 atmosphere. […] Stability of the compounds in the absence of cells was also assayed. […] Cells were washed twice with cold PBS. 70% cold Methanol (0.75 mL or 1.5 mL, for 12- and 6-well formats, respectively) containing Formula X as an internal standard was added to each well and cells were gently removed from the plate by scraping. The recovered cells suspended in the methanol solution were aspirated into a vial and frozen at −80° C.
Cell solutions were extracted overnight at −80° C. in 70% methanol, removed from the freezer, defrosted and vortexed. Tubes were centrifuged at 3000 rpm for 15 minutes at 4° C. Supernatants were removed and analyzed by LC-MS/MS. […] Supernatants were removed and analyzed by LC-MS/MS. […] The analytes were quantified using linear regression of calibration standard values with instrument response. […]
The general methods of Example 33 were used to determine compound concentrations. […] The results were plotted and the linear regression was calculated using Microsoft Excel.

[1] = Half-life of the active triphosphate in human hepatocytes; format: in vitro ADME; conditions: plated in 12-well format
Protocol: Human hepatocyte cells used for half-life determinations were human liver hepatocyte 12-well format cells and were seeded at 0.67 million cells per well. Canine hepatocyte cells used for half-life determinations were beagle dog liver hepatocyte 12-well format cells and were seeded at 0.67 million cells per well. Monkey hepatocyte cells used for half-life determinations were Cynomolgus monkey liver hepatocyte 12-well format cells, and were seeded at 0.9 million cells per well. Rat hepatocyte cells for half-life determinations were Sprague-Dawley (SD) rat liver hepatocyte 12-well format cells, and were seeded at 0.67 million cells per well. All cells were obtained from Life Technologies.

HCV replicon replication = assay: Inhibition of HCV replication (HCV replicon in Huh-luc/neo cells; extrapolated to primary human hepatocytes); format: cell-based
HCV genotype 1, 2 or 3 = conditions: once-daily 300 mg for seven days; cited from earlier work
HCV = conditions: several large clinical trials; cited from earlier work
HCV genotype 1 = conditions: cited from earlier work
[2] = patients receiving high dosages of VX-135; cited from earlier work
[3] = human, in vivo; cited from earlier work
human hepatocytes = assay: Determination of nucleoside concentrations (dephosphorylated 5′-OH nucleoside) in human hepatocyte media and cell extract; format: in vitro ADME; conditions: 20 μM Formula VII vs Formula II, 24 hours
Protocol: At 24 hours, media was removed and frozen. Cells were washed twice with cold PBS.
Supernatants were removed and analyzed by LC-MS/MS. […] Samples were centrifuged at 3000 rpm for 15 minutes. Supernatants were removed and analyzed by LC-MS/MS.
Hepatocyte media incubates were removed from the freezer, defrosted and vortexed. […] Supernatants were removed and analyzed by LC-MS/MS. […] Supernatants were removed and analyzed by LC-MS/MS.

[4] = beagle (dog), Sprague-Dawley (rat), cynomolgus monkey, range over human, dog, monkey and rat hepatocytes, read-out: half-life of active triphosphate in hepatocytes
[5] = 6 well plate (2 ml), 1.7 million cells per well
[6] = 12 well plate (1 ml), 0.67 million cells per well

C[C@@]1(F)[C@H](O)[C@@H](COP(=O)(O)OP(=O)(O)OP(=O)(O)O)O[C@H]1n1ccc(=O)[nH]c1=O [GS-7977-TP]
time of peak triphosphate levels in human hepatocytes (human liver hepatocytes): 24 h
half-life [1, 4]: 8 to 23 h

[2H]c1cn(C2OC(C([2H])([2H])OP(=O)(O)OP(=O)(O)OP(=O)(O)O)[C@@H](O)[C@@]2(C)O)c(=O)[nH]c1=O (some centres unmarked) [Formula IV]
half-life [1, 4]: 10 to 30 h
half-life ([1]; human, human hepatocytes, read-out: half-life of triphosphate): > 24 h

[2H]c1cn(C2OC(C([2H])([2H])O)[C@@H](O)[C@@]2(C)O)c(=O)[nH]c1=O (some centres unmarked) [Formula VI, 5′-deuterated 2′-C-methyluridine]
activity against hepatitis C viral replication (HCV replicon replication; statement in description, poor substrate for nucleoside monophosphate kinase): little activity

CC(C)OC(=O)[C@@H](C)N[P@@](=O)(OC[C@H]1O[C@@H](n2ccc(=O)[nH]c2=O)[C@](C)(Cl)[C@@H]1O)Oc1ccccc1 [IDX21437]
mean maximum reduction in viral load (HCV genotype 1, 2 or 3): 4.2-4.3 log 10 IU/mL

CC(C)OC(=O)[C@H](C)N[P@](=O)(OC[C@H]1O[C@@H](n2ccc(=O)[nH]c2=O)C(C)(F)C1O)Oc1ccccc1 (some centres unmarked) [Sofosbuvir]
sustained viral response (SVR) of twelve weeks, share of trial participants (HCV): 50-90%

CC(C)OC(=O)[C@H](C)NP(=S)(OC[C@H]1O[C@@H](n2ccc(=O)[nH]c2=O)[C@](C)(O)[C@@H]1O)Oc1ccccc1 (single isomer, unassigned) [VX-135]
completion of treatment rate (SVR12) (HCV genotype 1; 200 mg VX-135 in combination with daclatasvir, 12 weeks of treatment): 91%
sustained viral response rate four weeks after completion of treatment (SVR4) (HCV genotype 1; 200 mg VX-135 in combination with daclatasvir, treatment-naïve genotype 1, intent-to-treat): 83%
adverse event (HCV genotype 1; VX-135 in combination with daclatasvir, one patient): serious adverse event of vomiting/nausea
clinical toxicity finding [2]: liver toxicity

COc1nc(N)nc2c1ncn2[C@@H]1O[C@H](COP(=O)(N[C@@H](C)C(=O)OCC(C)(C)C)Oc2cccc3ccccc23)[C@@H](O)[C@@]1(C)O (some centres unmarked) [BMS-986094]
clinical safety outcome [3]: death of a patient due to heart failure

[2H]c1cn([C@@H]2O[C@H](C([2H])([2H])O[P@@](=O)(N[C@@H](C)C(=O)OC(C)C)Oc3ccccc3)[C@@H](O)[C@@]2(C)O)c(=O)[nH]c1=O [Formula II, (S)-isopropyl 2-(((S)-(((2R,3R,4R,5R)-5-(5-deutero-2,4-dioxo-3,4-dihydropyrimidin-1(2H)-yl)-3,4-dihydroxy-4-methyltetrahydrofuran-2-yl)dideuteromethoxy)(phenoxy)phosphoryl)amino)propanoate]
EC50 (HCV replicon replication; Hepatitis C virus, Hepatocyte, read-out: predicted EC50 in primary human hepatocytes): 6.25 to 10 nM

C[C@@]1(O)[C@H](O)[C@@H](CO)O[C@H]1n1ccc(=O)[nH]c1=O [Formula IX, 2′-C-methyluridine]
higher concentration of undeuterated dephosphorylated 2′-methyl uridine compared to 5′-deuterated form (Formula VI), cell extract (intracellular) (human hepatocytes; [5]): 2.8 fold
higher concentration of undeuterated dephosphorylated 2′-methyl uridine compared to 5′-deuterated form (Formula VI), first value, printed as cell extract (human hepatocytes; [5]): 1.5 fold
higher concentration of undeuterated dephosphorylated 2′-methyl uridine (Formula IX) compared to 5′-deuterated form (Formula VI), cell extract (intracellular) (human hepatocytes; [6]): 2.9 fold
higher concentration of undeuterated dephosphorylated 2′-methyl uridine (Formula IX) compared to 5′-deuterated form (Formula VI), media (extracellular) (human hepatocytes; [6]): 1.9 fold

Reference: patent US20160016986A1, “STABILIZED NUCLEOTIDES FOR MEDICAL TREATMENT” (priority 2014, published 2016)
